Publication PMC5332414, “Mycobacterium abscessus subsp. abscessus Is Capable of Degrading Pseudomonas aeruginosa Quinolone Signals” (Frontiers in Microbiology, 2017)

Assays:
AqdB (His8-MBP-AqdB) = target: T1, AqdB (His8-MBP-AqdB) (Mycobacteroides abscessus, UniProt B1MFK1); assay: biotransformation by recombinant E. coli cells, HPLC; type: cell-based; settings: 20 μM HHQ, LB medium; E. coli Rosetta without aqdB did not convert HHQ
T1 construct: His8-MBP fusion, pET28b(+), expressed in E. coli Rosetta(DE3) whole cells
T1 sequence (B1MFK1 whole entry, the tested form may be a part): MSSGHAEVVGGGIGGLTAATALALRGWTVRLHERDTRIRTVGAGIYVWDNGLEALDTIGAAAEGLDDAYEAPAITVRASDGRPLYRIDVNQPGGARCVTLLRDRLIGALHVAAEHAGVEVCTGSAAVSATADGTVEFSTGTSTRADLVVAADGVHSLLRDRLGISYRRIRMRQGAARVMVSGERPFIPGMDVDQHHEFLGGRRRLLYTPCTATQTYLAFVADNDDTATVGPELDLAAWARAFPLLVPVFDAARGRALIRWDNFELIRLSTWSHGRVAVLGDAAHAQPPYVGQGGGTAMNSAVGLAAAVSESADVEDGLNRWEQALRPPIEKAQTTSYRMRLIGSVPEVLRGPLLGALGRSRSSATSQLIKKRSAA

[1] = system: CCCCCCCc1[nH]c2ccccc2c(=O)c1O; assay: purified protein; type: biochemical, Mycobacteroides abscessus; settings: apparent, co-substrate O2, 50 mM Tris, 2 mM EDTA, 10% PEG 1500, 4% (v/v) DMSO, pH 8.0, 30°C

Molecule | biotransformation by recombinant E. coli cells, HPLC (AqdB (His8-MBP-AqdB)) | Km [1] [µM] | kcat [1] [s⁻¹]
CCCCCCCc1cc(=O)c2ccccc2[nH]1 [HHQ, 2-heptyl-4(1H)-quinolone] | E. coli cells producing the His8-MBP-AqdB protein converted HHQ to PQS | – | –
AqdC (AqdC^I) (Mycobacteroides abscessus ATCC 19977) | – | 37.2 ± 9.8 | 97.8 ± 19.1
CCCCCCCc1[nH]c2ccccc2c(=O)c1O [PQS, 2-heptyl-3-hydroxy-4(1H)-quinolone] | E. coli cells producing the His8-MBP-AqdB protein converted HHQ to PQS | – | –
